Data on 2 molecules can be found in patent US10080756B2, “Combination methods for treating cancers” (Gilead Sciences, Inc., priority 2014, dated 2018).

pEC50: −log10 of the molar value. A value given as a limit tells only on which side of the number the result lay.

What all share (assay type): cell-based
One assay relates to WSU-FSCCL. As to the kind of experiment: Cell Titer Glo viability assay, WSU-FSCCL. The note with it: WSU-FSCCL, FL; single agent; 72 hours; read-out: Inhibition of Viability, EC50. How it is done:
(§1) All procedures were performed at Gilead Sciences, Inc. in Branford, The compound of formula (I), cyclophosphamide, doxorubicin and vincristine sulfate were dissolved in DMSO to prepare stock solutions that were serially diluted three-fold in DMSO in a 96 well plate format at 1000× so the final starting assay concentrations tested would be 10 μM, 200 μM, 10 μM, and 1 μM respectively, for each compound. Compound plates were diluted 1:100 in RPMI without serum or additives creating a 10× stock. Cells were seeded into a 96-well plate at 10,000-20,000 cells per well in 100 μl of growth media appropriate to the cell line supplemented with 100 U/L penicillin-streptomycin. OCI-Ly3, OCI-Ly4 and OCI-Ly7 were grown in Iscove's+20% FBS, OCI-Ly19 was grown in alphaMEM+20% FBS, and all other cell lines were grown in RPMI+10% FBS. To each well, 11 μl of 10× compound was added in a final concentration of 0.1% DMSO and cells were incubated at 37° C. in 5% CO2 for 72 hours. Cell viability was assessed with Cell Titer Glo (Promega, Madison, Wis.) following the manufacturer's protocol on an Envision plate reader (Perkin Elmer, Waltham, Mass.). EC50 values were determined using a four parameter variable slope model with GraphPad Prism 6.0 software. All EC50 values represent mean values of from duplicate dose response curves.

Another assay concerns Karpas 422. As to the kind of experiment: Cell Titer Glo viability assay, Karpas 422. The conditions noted are these: Homo sapiens; Karpas 422, DLBCL; single agent; 72 hours; read-out: Inhibition of Viability, EC50. How it is done: as §1
In the next assay the test system is MM1.S. As to the kind of experiment: Cell Titer Glo viability assay, MM1.S. The conditions noted are these: Homo sapiens, MM, single agent, 72 hours, read-out: Inhibition of Viability, EC50. How it is done: as §1
Another assay concerns OCI-LY7. As to the kind of experiment: Cell Titer Glo viability assay, OCI-LY7. The note with it: Homo sapiens; OCI-LY7, DLBCL; single agent; 72 hours; read-out: Inhibition of Viability, EC50. How it is done: as §1
The next assay deals with WSU-NHL. As to the kind of experiment: Cell Titer Glo viability assay, WSU-NHL. The conditions noted are these: Homo sapiens, FL, single agent, 72 hours, read-out: Inhibition of Viability, EC50. On the procedure:
as §1

The next assay relates to RPMI-8266. Put plainly: Cell Titer Glo viability assay, RPMI-8266. The note with it: RPMI8266; RPMI-8266, MM; single agent; 72 hours; read-out: Inhibition of Viability, EC50. How it is done: as §1
Another assay has as its system SU-DHL-10. Put plainly: Cell Titer Glo viability assay, SU-DHL-10. The conditions noted are these: Homo sapiens, SU-DHL10; SU-DHL-10, DLBCL; single agent; 72 hours; read-out: Inhibition of Viability, EC50. On the procedure:
as §1

The subject of a further assay is KMS-11. Put plainly: Cell Titer Glo viability assay, KMS-11. The conditions noted are these: Homo sapiens; KMS-11, MM; single agent; 72 hours; read-out: Inhibition of Viability, EC50. How it is done: as §1
The subject of the next assay is OCI-LY19. Put plainly: Cell Titer Glo viability assay, OCI-LY19. The conditions noted are these: Homo sapiens; OCI-LY19, DLBCL; single agent; 72 hours; read-out: Inhibition of Viability, EC50. On the procedure:
as §1

For `c1cn2cc(-c3ccc4cn[nH]c4c3)nc(Nc3ccc(N4CCOCC4)cc3)c2n1` [Compound of Formula I, 6-(1H-indazol-6-yl)-N-(4-morpholinophenyl)imidazo[1,2-a]pyrazin-8-amine], the pEC50 in the assay with WSU-FSCCL, in the assay with Karpas 422, in the assay with MM1.S, in the assay on OCI-LY7, in the assay with WSU-NHL and in the assay with RPMI-8266 was below 5.52 in each case. Also, the pEC50 in the assay on SU-DHL-10, in the assay on KMS-11 and with OCI-LY19 was below 5.52 throughout.
On to `CC[C@]1(O)C[C@H]2CN(CCc3c([nH]c4ccccc34)[C@@](C(=O)OC)(c3cc4c(cc3OC)N(C=O)[C@H]3[C@@](O)(C(=O)OC)[C@H](OC(C)=O)[C@]5(CC)C=CCN6CC[C@]43[C@@H]65)C2)C1` [Vincristine, vincristine], for which the negative-log EC50 (pEC50) with WSU-FSCCL is 7.24; in the assay on Karpas 422, 7.21; in the assay on MM1.S, 7.23; in the assay on OCI-LY7, 8.34; in the assay on WSU-NHL, 7.41; with RPMI-8266, 7.17. Besides, the results for the pEC50 in the assay with SU-DHL-10, in the assay on KMS-11 and in the assay with OCI-LY19 were 7.35, 6.99 and 8.92, respectively.
